Results reported in US5635608A, “α-carboxy caged compounds” (Molecular Probes, Inc., priority 1994, dated 1997).

System: whole neuron
Test: Release of a caged neurotransmitter in situ: whole-cell current of a neuron before and on photolysis
Format: cell-based
Description: FIG. 2: The photolysis of a caged probe in situ, as described in Example 15.
A whole neuron is bathed in a solution of γ-(α-carboxy o-nitrobenzyl)-caged glutamic acid (3), as described in Example 1. The whole-cell current is then monitored as the neuron is photolyrically illuminated at 343 nm. […] This indicates both that the uncaging of a CNB-caged probe is extremely rapid, but also verifies that the caged neurotransmitter is inert in situ until uncaged.

N[C@@H](CCC(=O)OC(C(=O)O)c1ccccc1[N+](=O)[O-])C(=O)O (stereo partly drawn) [Compound 3, L-Glutamic Acid, γ-(α-carboxy-o-nitrobenzyl) ester]
whole-cell current on photolytic illumination (illumination at 343 nm, begun at time=0 ms, FIG. 2): increases rapidly | activity of the caged neurotransmitter in situ before uncaging (whole-cell current) (whole neuron bathed in solution of caged glutamic acid, before illumination): inert
